# Assay results reported in patent US8895585B2, “Nicotinamide derivative or salt thereof” (FUJIFILM Corporation, priority 2010, dated 2014).
# pIC50: −log10 of the molar value. Structures can show the parent of a compound that is named as a salt. Where two headings read alike, the source gives them in different places.
# How the values were obtained:
# [1] = molecular target: T1, glutathione S-transferase (GST)-fused full-length human Syk protein (Homo sapiens, UniProt P43405); test: Syk enzyme assay; format: biochemical
# T1 construct: (GST)-fused full-length human Syk protein; GST (glutathione S-transferase); purchased Carna Biosciences
# Summary of the method: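 Baculovirus-expressed enzyme (1.2 ng) was preincubated with compound in HEPES pH 7.0/MgCl2/DTT buffer, 2 min shaking then 13 min at room temperature. Biotin-EDPDYEWPSA-NH2 (0.4 μM final) and ATP (27 μM final) were added for 40 min at room temperature. EDTA stop, streptavidin-XL/PT66-K TR-FRET at 615/665 nm gave IC50.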
# [2] = tested on: THP-1 cells; test: TNFα generation assay; format: cell-based, human; conditions: Homo sapiens
# Summary of the method: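 THP-1 cells differentiated to macrophage-like cells with 10 ng/ml IFN-γ for 2 days, preincubated with compound 30 min at room temperature, then cultured 7 h on plates coated with human IgG (10 μg/ml). Secreted TNFα measured by ELISA or AlphaLISA.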
# [3] = Syk enzyme assay, Test Example 1, read-out: IC50 of Syk-inhibitory activity
# [4] = THP-1, THP-1 cells, Table 22, read-out: IC50 in TNFα generation assay
# [5] = read-out: Syk-inhibitory activity (IC50)
# [6] = THP-1, 7 h, IFN-γ-differentiated THP-1 cells on human IgG-coated plate, cultured 7 hours, read-out: TNFα generation inhibitory activity (IC50)
"pIC50 [1, 3]","pIC50 [2, 4]","pIC50 [1, 5]","pIC50 [2, 6]",Compound
> 8.00,6.89 to 7.19,–,–,"CNc1cccc(-c2cncc(Nc3nc(N[C@@H]4CCCC[C@@H]4N)c(F)cc3C(N)=O)c2)c1 (relative stereo) [Example 004-219, 6-(cis-2-aminocyclohexylamino)-5-fluoro-2-((5-(3-(methylamino)phenyl)pyridin-3-yl)amino)nicotinamide]"
> 8.00,6.89 to 7.19,–,–,"CNc1ccc(-c2cncc(Nc3nc(N[C@@H]4CCCC[C@@H]4N)c(F)cc3C(N)=O)c2)cc1 (relative stereo) [Example 004-220, 6-(cis-2-aminocyclohexylamino)-5-fluoro-2-((5-(4-(methylamino)phenyl)pyridin-3-yl)amino)nicotinamide]"
> 8.00,6.70 to 6.89,–,–,"NC(=O)c1cc(F)c(N[C@@H]2CCCC[C@@H]2N)nc1Nc1cncc(-c2ccc(N3CCOCC3)cc2)c1 (relative stereo) [Example 004-222, 6-(cis-2-aminocyclohexylamino)-5-fluoro-2-((5-(4-morpholinophenyl)pyridin-3-yl)amino)nicotinamide]"
> 8.00,6.70 to 6.89,–,–,"NC(=O)c1cc(F)c(N[C@@H]2CCCC[C@@H]2N)nc1Nc1cncc(-c2ccc(N3CCCC3=O)cc2)c1 (relative stereo) [Example 004-226, 6-(cis-2-aminocyclohexylamino)-5-fluoro-2-((5-(4-(2-oxopyrrolidin-1-yl)phenyl)pyridin-3-yl)amino)nicotinamide]"
> 8.00,6.70 to 6.89,–,–,"CN(C)c1cccc(-c2cncc(Nc3nc(N[C@@H]4CCCC[C@@H]4N)c(F)cc3C(N)=O)c2)c1 (relative stereo) [Example 004-227, 6-(cis-2-aminocyclohexylamino)-2-((5-(3-(dimethylamino)phenyl)pyridin-3-yl)amino)-5-fluoronicotinamide]"
> 8.00,6.89 to 7.19,–,–,"NC(=O)c1cc(F)c(N[C@@H]2CCCC[C@@H]2N)nc1Nc1cncc(-c2nnco2)c1 (relative stereo) [Example 004-229, 2-((5-(1,3,4-oxadiazol-2-yl)pyridin-3-yl)amino)-6-((cis-2-aminocyclohexyl)amino)-5-fluoronicotinamide]"
> 8.00,> 7.19,–,–,"NC(=O)c1cc(F)c(N[C@@H]2CCCC[C@@H]2N)nc1Nc1ccc2ncncc2c1 (relative stereo) [Example 006-062, 6-(cis-2-aminocyclohexylamino)-5-fluoro-2-(quinazolin-6-ylamino)nicotinamide]"
> 8.00,6.70 to 6.89,–,–,"NC(=O)c1cc(F)c(N[C@@H]2CCCC[C@@H]2N)nc1Nc1cncc(-c2cc[nH]c2)c1 (relative stereo) [Example 006-116, 2-((5-(1H-pyrrol-3-yl)pyridin-3-yl)amino)-6-((cis-2-aminocyclohexyl)amino)-5-fluoronicotinamide]"
> 8.00,6.89 to 7.19,–,–,"NC(=O)c1cc(F)c(N[C@@H]2CCCC[C@@H]2N)nc1Nc1cccc(-n2ccnn2)c1 (relative stereo) [Example 006-122, 2-(3-(1H-1,2,3-triazol-1-yl)phenylamino)-6-((cis-2-aminocyclohexyl)amino)-5-fluoronicotinamide]"
> 8.00,6.70 to 6.89,–,–,"NC(=O)c1cc(F)c(N[C@@H]2CCCC[C@@H]2N)nc1Nc1cncc(-n2cccc2)c1 (relative stereo) [Example 006-123, 2-((5-(1H-pyrrol-1-yl)pyridin-3-yl)amino)-6-(cis-2-aminocyclohexylamino)-5-fluoronicotinamide]"
> 8.00,6.70 to 6.89,–,–,"NC(=O)c1cc(F)c(N[C@@H]2CCCC[C@@H]2N)nc1Nc1ccnc(-n2cccc2)c1 (relative stereo) [Example 006-124, 2-((2-(1H-pyrrol-1-yl)pyridin-4-yl)amino)-6-((cis-2-aminocyclohexyl)amino)-5-fluoronicotinamide]"
> 8.00,6.89 to 7.19,–,–,"NC(=O)c1cc(F)c(N[C@@H]2CCCC[C@@H]2N)nc1Nc1ccnc(-n2nccn2)c1 (relative stereo) [Example 006-125, 2-((2-(2H-1,2,3-triazol-2-yl)pyridin-4-yl)amino)-6-((cis-2-aminocyclohexyl)amino)-5-fluoronicotinamide]"
> 8.00,> 7.19,–,–,"NC(=O)c1cc(F)c(N[C@@H]2CCCC[C@@H]2N)nc1Nc1ccnc(-n2ccnn2)c1 (relative stereo) [Example 006-126, 2-((2-(1H-1,2,3-triazol-1-yl)pyridin-4-yl)amino)-6-((cis-2-aminocyclohexyl)amino)-5-fluoronicotinamide]"
7.30 to 8.00,6.70 to 6.89,–,–,"NC(=O)c1cc(F)c(N[C@@H]2CCCC[C@@H]2N)nc1Nc1ccnc(-n2ccnc2)c1 (relative stereo) [Example 006-128, 2-((2-(1-imidazol-1-yl)pyridin-4-yl)amino)-6-((cis-2-aminocyclohexyl)amino)-5-fluoronicotinamide]"
> 8.00,> 7.19,–,–,"NC(=O)c1cc(F)c(N[C@@H]2CCCC[C@@H]2N)nc1Nc1cncc(-n2cccn2)c1 (relative stereo) [Example 006-129, 2-((5-(1H-pyrazol-1-yl)pyridin-3-yl)amino)-6-((cis-2-aminocyclohexyl)amino)-5-fluoronicotinamide]"
7.30 to 8.00,6.89 to 7.19,–,–,"NC(=O)c1cc(F)c(N[C@@H]2CCCC[C@@H]2N)nc1Nc1ccnc(-n2cccn2)c1 (relative stereo) [Example 006-130, 2-((2-(1H-pyrazol-1-yl)pyridin-4-yl)amino)-6-((cis-2-aminocyclohexyl)amino)-5-fluoronicotinamide]"
> 8.00,6.89 to 7.19,–,–,"NC(=O)c1cc(F)c(N[C@@H]2CCCC[C@@H]2N)nc1Nc1ccnc(Cl)c1 (relative stereo) [Example 006-163, 6-((cis-2-aminocyclohexyl)amino)-2-((2-chloropyridin-4-yl)amino)-5-fluoronicotinamide]"
–,–,≥ 6.00,≥ 6.70,"NC(=O)c1cc(F)c(N[C@@H]2CCCC[C@@H]2N)nc1Nc1cnc2ccccc2c1 (relative stereo) [Example 7, 6-(cis-2-aminocyclohexylamino)-5-fluoro-2-(quinolin-3-ylamino)nicotinamide]"
–,–,≥ 6.00,≥ 6.70,"NC(=O)c1cc(F)c(N[C@@H]2CCCC[C@@H]2N)nc1Nc1cnc2ncccc2c1 (relative stereo) [Example 10-2, 6-(cis-2-aminocyclohexylamino)-5-fluoro-2-((1,8-naphthyridin-3-yl)amino)nicotinamide]"
7.30 to 8.00,6.70 to 6.89,–,–,"NC(=O)c1cc(F)c(N[C@@H]2CCCC[C@@H]2N)nc1Nc1cncc(NC(=O)c2ccccn2)c1 (relative stereo) [Example 027-020, N-(5-(6-(cis-2-aminocyclohexylamino)-3-carbamoyl-5-fluoropyridin-2-yl)aminopyridin-3-yl)picolinamide]"
> 8.00,6.70 to 6.89,–,–,"CN(C)C(=O)c1cc2cc(Nc3nc(N[C@@H]4CCCC[C@@H]4N)c(F)cc3C(N)=O)ccc2[nH]1 (relative stereo) [Example 029-016, 5-((6-(cis-2-aminocyclohexylamino)-3-carbamoyl-5-fluoropyridin-2-yl)amino)-N,N-dimethyl-1H-indole-2-carboxamide]"
–,–,≥ 6.00,≥ 6.70,"Cc1cncc(Nc2nc(N[C@@H]3CCCC[C@@H]3N)c(Cl)cc2C(N)=O)c1 (relative stereo) [Example 34, 6-(cis-2-aminocyclohexylamino)-5-chloro-2-(5-methylpyridin-3-ylamino)nicotinamide•hydrochloride]"
> 8.00,6.70 to 6.89,–,–,"NC(=O)c1cc(F)c(N[C@@H]2CCCC[C@@H]2N)nc1Nc1cc(N)c2ncccc2c1 (relative stereo) [Example 41-1, 6-(cis-2-aminocyclohexylamino)-2-((8-aminoquinolin-6-yl)amino)-5-fluoronicotinamide]"
> 8.00,6.70 to 6.89,–,–,"CCS(=O)(=O)Nc1cccc2cc(Nc3nc(N[C@@H]4CCCC[C@@H]4N)c(F)cc3C(N)=O)cnc12 (relative stereo) [Example 41-12, 6-(cis-2-aminocyclohexylamino)-2-((8-(ethylsulphonamide)quinolin-3-yl)amino)-5-fluoronicotinamide]"
–,–,≥ 6.00,≥ 6.70,"NC(=O)c1cc(F)c(N[C@@H]2CCCC[C@@H]2N)nc1Nc1cncc2ccccc12 (single isomer, unassigned) [Example 9, 6-(cis-2-aminocyclohexylamino)-5-fluoro-2-(isoquinolin-4-ylamino)nicotinamide•hydrochloride]"
–,–,≥ 6.00,≥ 6.70,"COc1cc(Nc2nc(N[C@@H]3CCCC[C@@H]3N)c(F)cc2C(N)=O)cc(OC)c1 (single isomer, unassigned) [Example 21, 6-(cis-2-aminocyclohexylamino)-2-(3,5-dimethoxyphenylamino)-5-fluoronicotinamide]"
7.30 to 8.00,6.89 to 7.19,–,–,COc1cc(Nc2nc(NC3CCCCC3N)c(F)cc2C(N)=O)cc(OC)c1OC (stereo not drawn) [Example 002-007]
> 8.00,6.70 to 6.89,–,–,Cc1cc(Nc2nc(NC3CCCCC3N)c(F)cc2C(N)=O)cnc1C (stereo not drawn) [Example 002-024]
> 8.00,6.89 to 7.19,–,–,NC(=O)c1cc(F)c(NC2CCCCC2N)nc1Nc1cccc2[nH]ncc12 (stereo not drawn) [Example 002-025]
> 8.00,6.70 to 6.89,–,–,COCCn1ncc2c(Nc3nc(NC4CCCCC4N)c(F)cc3C(N)=O)cccc21 (stereo not drawn) [Example 002-030]
